Data on five compounds can be found in paper PMC6829886, “Inhibition of Non-Small Cell Lung Cancer Cells by Oxy210, an Oxysterol-Derivative that Antagonizes TGFβ and Hedgehog Signaling” (Cells, 2019).

Data set [1] relates to A549 cells. Description: Cell counting (proliferation) assay in A549 cells. Type of data set: cell-based, human. The following applies: A549 cells, CP alone. How it is done: A549 and H2030 cells cultured in RPMI 1640 containing 5% FBS in 12 well-plates at 20% confluence were treated with Oxy210 for 6 days and then trypsinized, spun down and resuspended in fresh medium. For the Carboplatin (CP) and Oxy210 co-treatment experiments, A549 cells cultured in RPMI 1640 containing 2% FBS in 12 well-plates at 20% confluence were treated with CP at different concentrations in the presence or absence of Oxy210 for 6 days. For the TGFβ-induced drug resistance assay, A549 cells cultured in RPMI 1640 containing 2% FBS in 12 well-plates at 10% confluence were pre-treated with TGFβ1 alone or together with Oxy210 for 3 days, and then treated with 20 μM CP for 4 days. An aliquot of cell suspension was applied to a hemocytometer and the cells were then counted under a light microscope.
Statistical analyses were performed using the StatView 5 program (SAS Institute, Cary, NC, USA). All p values were calculated using ANOVA and Fisher’s projected least significant difference (PLSD) significance test. A value of p < 0.05 was considered significant. The IC 50 dose-response curves shown in Figure 4b and Figure 7a–c were modeled using a five-parameter logistic model. This model allows for asymmetric curves and automatically estimates the mean maximum and minimum response. Based on this model, IC 50 values were estimated corresponding to the dose halfway between min and max response. Models of dose versus response and dose versus log response were also evaluated (see Supplementary Materials). The R square statistic was computed as a measure of model fit.
Figure 7 Inhibition of NSCLC cell proliferation by Oxy210. A549 (a), (c) and H2030 (b) cells were treated with the test agents as indicated in RPMI 1640 containing 5% FBS for 5 days and then were trypsinized and counted as described in Methods and Materials section. Data from a representative experiment are reported as the mean of triplicate determinations ± SD (* p < 0.05 vs. control; ** p < 0.01 vs. control).

Data set [2] has as its system TGFβ signaling in NIH3T3-E1 cells. Description: TGFβ target gene expression (Q-RT-PCR) in NIH3T3 cells. The following applies: for expression of CTGF induced by TGFβ: NIH3T3 cells, TGFβ 20 ng/mL, 48 h (Figure 4e); for TGFβ inhibitory properties: statement in Discussion. Type of data set: cell-based, mouse. How it is done:
Total RNA was extracted with the RNeasy Plus Mini Kit from Qiagen (Hilden, Germany) according to the manufacturer’s instructions. One microgram of RNA was reverse-transcribed using an iScript Reverse Transcription Supermix from Bio-Rad Laboratories (Hercules, CA, USA) to make single-stranded cDNA. The cDNAs were then mixed with Qi SYBR Green Supermix (Bio-Rad) for quantitative RT-PCR assay using a Bio-Rad I-cycler IQ quantitative thermocycler. All PCR samples were prepared in triplicate wells in a 96-well plate. After 40 cycles of PCR, melt curves were examined in order to ensure primer specificity. Fold changes in gene expression were calculated using the ΔΔCt method. Primers used for mouse were as follows: Oaz1 (5′-CCACTGCTTCGCCAGAGAG-3′) and (5′-CCCGGACCCAGGTTACTA-3′), Gli1 (5′- […]-3′ and 5′- GCT GATCCAGCCTAAGGTTCTC-3′), Ptch1 (5′-CCATCGGCGACAAGAACC-3′ and 5′-[…]-3′), Thbs1 (5′-[…]-3′ and 5′-CGGGGATCAGGTTGGCATT-3′), Cryab (5′-[…]-3′ and 5′-[…]-3′), Egr2 (5′-[…]-3′ and 5′-[…]-3′), CTGF (5′-GGGCCTCTTCTGCGATTTC-3′ and 5′-[…]-3′).
Figure 4 Inhibition of ligand-induced Hedgehog and TGFβ signaling in mouse fibroblast cells. NIH3T3 cells were pretreated for 2 h with Oxy210 or various inhibitors as indicated in DMEM containing 5% FBS. Next, cells were treated with CAPAN-1 conditioned medium (CM) in the absence or presence of oxysterols or inhibitors. After 72 h, RNA was extracted and analyzed by Q-RT-PCR for the expression of Hh target genes Gli1 and Ptch1 and normalized to Oaz1 expression (a,b). (c,e) NIH3T3 cells were treated in DMEM containing 0.1% BCS overnight and then pretreated for 2 h with the inhibitors as indicated in DMEM containing 0.1%BCS. The cells were then treated with TGFβ (20ng/mL) in the absence or presence of the compounds. After 48 h, RNA was extracted and analyzed by Q-RT-PCR for the expression of TGFβ target genes as indicated and normalized to Oaz1 expression. (d) NIH3T3 cells cultured in 24 well-plates were transfected with a Smad response element reporter (SBE-Luciferase) plasmid and a pTK-Renilla-Luciferase plasmid. 6 hrs after transfection, cells were treated with the test agents as indicated for 48 hrs. Luciferase activity was measured and normalized to the Renilla luciferase activity. Data from a representative experiment are reported as the mean of triplicate determinations ± SD (** p < 0.01 vs. CM (a,b) or TGFβ (c,d and e) treated cells; ## p < 0.01 vs. control).

The nature of data set [3]: Metabolic stability in mouse liver microsomes. Type of data set: in vitro ADME.
The nature of data set [4]: Metabolic stability in human liver microsomes. The format is in vitro ADME. (In general: Liver microsomes are a subcellular fraction often used to study metabolism.)
The test system of a further data set is Smo. Details: method as in PMID 24591126. The following applies: cited from earlier work.
The next data set addresses T1, Human TGFBR2 (Homo sapiens, UniProt P37173).
T1 construct: Human TGFBR2 (amino acid 188-end); purchased Eurofins
T1 sequence (P37173 188-567 limits assumed): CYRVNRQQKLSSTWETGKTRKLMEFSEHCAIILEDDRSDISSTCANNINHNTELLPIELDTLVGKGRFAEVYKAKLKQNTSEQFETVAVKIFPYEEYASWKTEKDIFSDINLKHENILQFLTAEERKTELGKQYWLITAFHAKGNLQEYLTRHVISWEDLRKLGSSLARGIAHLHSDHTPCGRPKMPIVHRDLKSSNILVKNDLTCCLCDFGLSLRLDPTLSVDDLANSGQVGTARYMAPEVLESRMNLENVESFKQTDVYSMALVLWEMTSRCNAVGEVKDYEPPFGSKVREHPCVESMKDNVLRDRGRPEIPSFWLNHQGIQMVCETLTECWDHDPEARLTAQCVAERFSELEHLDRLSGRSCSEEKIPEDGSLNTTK
Description: TGFβ receptor II kinase inhibition assay (Eurofins). Conditions: vs. positive controls Cdk1/2 Inhibitor III and PKR Inhibitor. Type of data set: biochemical. How it is done: (§1) Effect of Oxy210 on inhibition of TGFβ receptors I and II kinase activity was assessed by Eurofins (Celle-L’Evescault, France). TGFBR1 (h): Human TGFBR1 (amino acid 200 to end) was incubated with 8 mM MOPS pH 7.0, 0.2 mM EDTA, 1 mM MnCl2, 2 mg/mL casein, 10 mM Magnesium acetate and […] (specific activity and concentration as required). The reaction was initiated by the addition of the Mg/ATP mix. After incubation for 40 min at room temperature, the reaction was stopped by the addition of phosphoric acid to a concentration of 0.5%. 10 μL of the reaction was then spotted onto a P30 filtermat and washed four times for 4 min in 0.425% phosphoric acid and once in methanol prior to drying and scintillation counting. TGFBR2 (h): Human TGFBR2 (amino acid 188-end) was incubated with 20 mM Tris/HCl pH 8.5, 0.2 mM EDTA, 0.33 mg/mL MBP, 10 mM Magnesium acetate and [9-33P-ATP] (specific activity and concentration as required). The reaction was initiated by the addition of the Mg/ATP mix. After incubation for 120 min at room temperature, the reaction was stopped by the addition of phosphoric acid to a concentration of 0.5%. […]
(§2) Figure 11 Inhibition of TGFβ-induced Smad2/3 phosphorylation and transcriptional activity. […] Luciferase activity was measured and normalized to the Renilla luciferase activity. […]

In another data set the target is T2, Human TGFBR1 (Homo sapiens, UniProt P36897).
T2 construct: Human TGFBR1 (amino acid 200 to end); purchased Eurofins
T2 sequence (P36897 200-503 limits assumed): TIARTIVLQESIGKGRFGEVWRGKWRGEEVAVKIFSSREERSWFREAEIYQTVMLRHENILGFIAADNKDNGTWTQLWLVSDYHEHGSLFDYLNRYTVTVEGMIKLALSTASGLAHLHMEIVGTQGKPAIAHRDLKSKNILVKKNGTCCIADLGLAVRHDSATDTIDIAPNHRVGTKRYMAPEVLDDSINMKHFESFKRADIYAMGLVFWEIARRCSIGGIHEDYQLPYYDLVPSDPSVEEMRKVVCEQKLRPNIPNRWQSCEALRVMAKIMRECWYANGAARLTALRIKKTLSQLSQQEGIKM
Put plainly: TGFβ receptor I kinase inhibition assay (Eurofins). Type of data set: biochemical. Conditions: vs. positive controls Cdk1/2 Inhibitor III and PKR Inhibitor. As to the method:
as §1, §2

The test system of data set [5] is TGFβ induced activity of SBE-luciferase reporter. Description: SBE-luciferase (Smad response-element) reporter assay in NIH3T3-E1 cells. Type of data set: cell-based, mouse. The following applies: 48 hrs.
Description: NIH3T3-E1 cells cultured in 24 well-plates at 90% confluence were transiently transfected with 0.1 μg of Smad response-element reporter (SBE-Luciferase) plasmid (Qiagen), or with 0.1 μg of Gli response-element reporter (pGL3b-8xGli-Luciferase) plasmid, and 10 ng of pSV40-Renilla-Luciferase plasmid (Promega, Madison, WI, USA) with or without co-transfection with 10ng of Gli1 overexpression vector, pSRα-Gli1 using a Lipofectamine LTX Plus transfection reagent, as previously described [23]. […] 6 hrs after transfection, cells were treated with test agents for 72 h. […] Twenty-four hours after transfection, cells were treated with test agents for 20 h. Then the firefly and Renilla luciferase activities were measured using a dual luciferase kit (Promega) and a GloMax-96 Microplate Luminometer (Promega) or a plate reader-SpectraMax iD3 (Molecular Devices, San Jose, CA, USA). The firefly luciferase activities were normalized to the Renilla luciferase activities.
Data set [6] has as its system A549 cells. Details: method as in PMID 15967103. Conditions: consistent with own observations; cited from earlier work.

Each structure is given as a SMILES string. Some results are limits rather than exact numbers.

Broadly, the IC90 is the concentration at which the effect reaches the 90% level. The IC50 is the concentration that inhibits the measured activity by half. As for `[NH2][Pt]1([NH2])[O]C(=O)C2(CCC2)C(=O)[O]1` [CP, Carboplatin, reference compound], in the data set with A549 cells [1] (original scale Y), the IC10 Estimate, dataset 4.1 - Fig 7c - CP is 0.66 µM. In addition, the IC90 with A549 cells [1] (original scale Y, read-out: IC90 Estimate, dataset 4.1 - Fig 7c - CP) is 40.7 µM. In addition, the IC50 in the data set with A549 cells [1] (± SE, read-out: IC50 of CP) was 6.72 ± 0.72 µM.
As to `CS(=O)(=O)c1ccc(C(=O)Nc2ccc(Cl)c(-c3ccccn3)c2)c(Cl)c1` [GDC0449], the “expression of CTGF induced by TGFβ” value in data set [2] is recorded as “only Oxy210 robustly inhibited”.
By amount remaining is commonly meant the share of the starting amount still present when the sample was taken. For orientation: half-life means the time needed for the level to fall by half in the phase considered. Consider `CC(C)CC[C@@H](O)[C@](C)(O)[C@H]1CC[C@H]2[C@@H]3CC=C4C[C@@H](O)CC[C@]4(C)[C@H]3CC[C@]12C` [Oxy16, (2R,3R)-2-((3S,8S,9S,10R,13S,14S,17S)-3-hydroxy-10,13-dimethyl-2,3,4,7,8,9,10,11,12,13,14,15,16,17-tetradecahydro-1H-cyclopenta[a]phenanthren-17-yl)-6-methylheptane-2,3-diol, reference compound], for which the amount remaining at 1 h stood at 5% in data set [3] (read-out: MLM, % Remaining after 60 min) and 6% in data set [4] (read-out: HLM, % Remaining after 60 min). Further, the half-life in [3] (read-out: MLM, Half-Life) is 14 min; in data set [4] (human, liver microsomes, read-out: HLM, Half-Life) it was less than 15 min. Moreover, in data set [2], the TGFβ inhibitory properties result was “devoid of TGFβ inhibitory properties”. In addition, the Smo binding affinity result in the data set with Smo is “lack of detectable Smo binding affinity”.
For `C[C@]12CC[C@H](O)C[C@@H]1CC[C@@H]1[C@@H]2CC[C@@]2(C)[C@H]1CC[C@@H]2[C@](C)(O)CCc1ccc(F)cc1` [Oxy186, reference compound], in data set [2], the “expression of CTGF induced by TGFβ” value is reported as “only Oxy210 robustly inhibited” and the TGFβ inhibitory properties result is listed as “devoid of TGFβ inhibitory properties”. For the same compound, the “inhibitory activity on TβRII in functional kinase assay” value on Human TGFBR2 was “did not display significant inhibitory activity”. In addition, the “inhibitory activity on TβRI in functional kinase assay” value at Human TGFBR1 is on record as “did not display significant inhibitory activity”.
Take `NC(=O)c1ccc(-c2nc(-c3ccc4c(c3)OCO4)c(-c3ccccn3)[nH]2)cc1` [SB431542, reference compound]: the “TGFβ induced activity of SBE-luciferase reporter” value in data set [5] is “significantly inhibited”. In addition, in the data set on A549 cells [6], the “effect on proliferation of A549 cells” value is given as “does not lessen the proliferation of A549 cells”.
